From patent US11891386B2, “Indole compounds and their use” (ARIAGEN, INC., priority 2017, dated 2024)

Columns and labels:
Format in all cases: in vitro ADME
human hepatocytes = assay: Hepatocyte intrinsic clearance assay, human hepatocytes; conditions: for CLint (μL/min/10^6 ells) / EH (%) hepatic extraction ratio: Human Hepatocytes; for CLint (μL/min/10^6 ells): 1 μM test compound; for EH (%) hepatic extraction ratio: well stirred liver model, fu=1
Text: (§1) The liver is an important organ in the body for drug metabolism. This Example describes hepatocyte intrinsic clearance assays using both human and mouse hepatocytes to evaluate the metabolic stability of the indole compounds disclosed herein. The parameters measured include t1/2 (half-life), CLint (intrinsic clearance), and EH (hepatic extraction ratio).
(§2) Testosterone (Lot FE111011-01) was obtained from Cerilliant (Round Rock, TX). 7-hydroxycoumarin (Lot 11631ED) was obtained from Sigma Aldrich (St. Louis, MO). Cryopreserved human hepatocytes pooled from ten donor males (X008001), cryopreserved male IRC/CD-1 mouse hepatocytes (M005052), INVITROGRO HI Medium (incubation), and INVITROGRO HT Medium (thawing) were obtained from Bioreclamation IVT (Baltimore, MD). All solvents were obtained from commercial sources and used without further purification.
(§3) Each test compound was prepared as a 1 mM stock solution in DMSO. A 2 μM solution of test compound and positive controls were prepared in INVITROGRO HI Medium (incubation). These solutions were pre-warmed in a sterile incubator set to maintain 37° C., 5% CO2, and 98% humidity. Cryopreserved hepatocytes were prepared at a concentration of 2×10^6 living cells/mL in incubation media and pre-warmed in the incubator. The compound solutions and hepatocyte mixtures were then combined at a ratio of 1:1 (v:v). The final volume of the reaction mixture was 750 μL, containing 1 μM test compound (10 μM for 7-hydroxycoumarin) and […]. The reaction mixture was placed in the incubator on a plate shaker. After 0, 15, 30, 60, 90, and 120 minutes of incubation, 100 μL of reaction mixtures were removed from the incubation plate and mixed with 150 μL of ice-cold acetonitrile in a designated well of a 96-well crash plate. The 96-well crash plate was placed on ice for 15 min, and samples were centrifuged (3,600 RPM, 10 min, 4° C.) to precipitate protein. The supernatants were diluted 1:1 (v:v) with water containing 0.15 μM verapamil and/or 1 μM tolbutamide (internal standards for positive and negative modes, respectively) in a 96-well shallow injection plate. This plate was sealed for LC-MS analysis. All measurements were done in duplicate.
(§4) The residual compound remaining (% R) was determined from LC-MS peak areas by comparison to the zero time point. Metabolic half-life (t1/2) and intrinsic clearance (CLint) values were calculated from the slope of the plot of ln (% R) vs. time and the concentration of hepatocytes present in the incubation. Percent remaining at 60 minutes was calculated by plugging in the 60 minute value into the slope equation generated by the percent remaining time points.
(§5) In vivo hepatic clearance CLH was calculated using the well stirred liver model according to the following equation:
(§6) [formula] where QH is the total liver blood flow, fu is unbound fraction of the drug, and CL′int is defined as follows: CL′int=CLint×(10^6 cells/g of liver weight)×(g liver weight/kg of body weight). In the first approximation, used in this study, fu=1.
(§7) Hepatic extraction ratio EH was calculated using the following equation:
(§8) [formula] Corresponding physiological parameters used in calculations for all species are shown below in Table 5.

[1] = as above; conditions: male, cryopreserved pooled human hepatocytes; Human Hepatocytes, 1 μM test compound
Text: as §1, §2, §3, §4, §5, §6, §7, §8

mouse hepatocytes = assay: Hepatocyte intrinsic clearance assay, mouse hepatocytes; conditions: for CLint (μL/min/10^6 ells) / EH (%) hepatic extraction ratio: Mouse Hepatocytes; for CLint (μL/min/10^6 ells): 1 μM test compound; for EH (%) hepatic extraction ratio: well stirred liver model, fu=1
Text: as §1, §2, §3, §4, §5, §6, §7, §8

[2] = as above; conditions: male, IRC/CD-1, cryopreserved mouse hepatocytes; Mouse Hepatocytes, 1 μM test compound
Text: as §1, §2, §3, §4, §5, §6, §7, §8

SMILES | CLint (μL/min/10^6 ells) (human hepatocytes) | EH (%) hepatic extraction ratio (human hepatocytes) [%] | half-life at 1 μM [1] [h] | CLint (μL/min/10^6 ells) (mouse hepatocytes) | EH (%) hepatic extraction ratio (mouse hepatocytes) [%] | half-life at 1 μM [2] [h] | clearance / metabolic profile, in words (human hepatocytes; human hepatocytes) | clearance / metabolic profile, in words (mouse hepatocytes; mouse hepatocytes) | EH lower as compared to ARI-002, in words (human hepatocytes; human hepatocytes) | times lower clearance as compared to ARI-002 (human hepatocytes; human hepatocytes) [times] | EH lower as compared to ARI-002, in words (mouse hepatocytes; mouse hepatocytes) | times lower clearance as compared to ARI-002 (mouse hepatocytes; mouse hepatocytes) [times]
COC(=O)c1csc(C(=O)c2c[nH]c3ccccc23)n1 [ARI-001, ITE] | 220.4 | 91 | 0.13 | 585.7 μL/min/10^6 ells | 87 | 0.0917 | – | – | – | – | – | –
CNC(=O)c1csc(C(=O)c2c[nH]c3ccccc23)n1 [ARI-004] | 40.2 | 65 | 0.712 | 1,174.2 μL/min/10^6 ells | 93 | 0.0467 | – | – | – | – | – | –
Cc1nc(-c2csc(C(=O)c3c[nH]c4ccccc34)n2)no1 [ARI-030, (1H-indol-3-yl)(4-(5-methyl-1,2,4-oxadiazol-3-yl)thiazol-2-yl)methanone] | 1.8 | 18 | 6.31 | 40.5 μL/min/10^6 ells | 70 | 0.285 | – | – | – | – | – | –
Cc1noc(-c2csc(C(=O)c3c[nH]c4ccccc34)n2)n1 [ARI-031, (1H-indol-3-yl)(4-(3-methyl-1,2,4-oxadiazol-5-yl)thiazol-2-yl)methanone] | 0.7 | 8 | 16.1 | 1.0 μL/min/10^6 ells | 6 | 11.7 | low clearance | low clearance | – | – | – | –
CNC(=O)c1csc(C(=O)c2c[nH]c3ccc(Cl)cc23)n1 [ARI-049, 2-(5-chloro-1H-indole-3-carbonyl)-N-methylthiazole-4-carboxamide] | 3.0 | 27 | 3.88 | 7.3 μL/min/10^6 ells | 30 | 1.59 | lower clearance and EH value | lower clearance and EH value | – | – | – | –
COC(=O)c1csc(C(=O)c2c[nH]c3ccc(Cl)cc23)n1 [ARI-055, methyl 2-(5-chloro-1H-indole-3-carbonyl)thiazole-4-carboxylate] | 10.3 | 56 | 1.12 | 5.1 μL/min/10^6 ells | 23 | 2.25 | – | – | – | – | – | –
O=C(c1nc(-c2nnco2)cs1)c1c[nH]c2ccccc12 [ARI-056, (4-(1,3,4-oxadiazol-2-yl)thiazol-2-yl)(1H-indol-3-yl)methanone] | 17.7 | 68 | 0.653 | 25.8 μL/min/10^6 ells | 60 | 0.447 | – | – | – | – | – | –
Cc1nnc(-c2csc(C(=O)c3c[nH]c4ccccc34)n2)o1 [ARI-060, (1H-indol-3-yl)(4-(5-methyl-1,3,4-oxadiazol-2-yl)thiazol-2-yl)methanone] | 2.5 | 24 | 4.55 | 5.0 μL/min/10^6 ells | 23 | 2.3 | – | – | – | – | – | –
CNC(=O)c1csc(C(=O)c2c[nH]c3ccc(F)cc23)n1 [ARI-065, 2-(5-fluoro-1H-indole-3-carbonyl)-N-methylthiazole-4-carboxamide] | 7.6 | 48 | 1.52 | 7.1 μL/min/10^6 ells | 29 | 1.62 | lower clearance and EH value | lower clearance and EH value | – | – | – | –
COC(=O)c1csc(C(=O)c2c[nH]c3ccc(F)cc23)n1 [ARI-066, methyl 2-(5-fluoro-1H-indole-3-carbonyl)thiazole-4-carboxylate] | 98.7 | 92 | 0.117 | 51.9 μL/min/10^6 ells | 75 | 0.223 | – | – | – | – | – | –
CCC(=O)c1csc(C(=O)c2c[nH]c3ccc(Cl)cc23)n1 [ARI-067, 1-(2-(5-chloro-1H-indole-3-carbonyl)thiazol-4-yl)propan-1-one] | 2.3 | 22 | 5 | 3.3 μL/min/10^6 ells | 16 | 3.54 | – | – | – | – | – | –
Nc1nnc(-c2csc(C(=O)c3c[nH]c4ccccc34)n2)o1 [ARI-083, (4-(5-amino-1,3,4-oxadiazol-2-yl)thiazol-2-yl)(1H-indol-3-yl)methanone] | 1.1 | 12 | 10.8 | 0.7 μL/min/10^6 ells | 4 | 16.1 | lower clearance and hepatic extraction parameters than ARI-060 | lower clearance and hepatic extraction parameters than ARI-060 | – | – | – | –
CCC(=O)c1csc(C(=O)c2c[nH]c3ccc(F)cc23)n1 [ARI-087, 1-(2-(5-fluoro-1H-indole-3-carbonyl)thiazol-4-yl)propan-1-one] | 6.0 | 43 | 1.91 | 6.3 μL/min/10^6 ells | 27 | 1.84 | – | – | two times lower | 23 | three times lower | 153
Nc1nnc(-c2csc(C(=O)c3c[nH]c4ccccc34)n2)s1 [ARI-090, (4-(5-amino-1,3,4-thiadiazol-2-yl)thiazol-2-yl)(1H-indol-3-yl)methanone] | 5.3 | 39 | 2.19 | 2.5 μL/min/10^6 ells | 13 | 4.7 | – | – | – | – | – | –
Nc1nnc(-c2csc(C(=O)c3c[nH]c4c(F)cccc34)n2)o1 [ARI-118, (4-(5-amino-1,3,4-oxadiazol-2-yl)thiazol-2-yl)(7-fluoro-1H-indol-3-yl)methanone] | 0.7 | 8.4 | 15.4 | 0.8 μL/min/10^6 ells | 4.6 | 14 | low clearance | low clearance | – | – | – | –
Nc1nnc(-c2csc(C(=O)c3c[nH]c4cc(Cl)c(Cl)cc34)n2)o1 [ARI-120, (4-(5-amino-1,3,4-oxadiazol-2-yl)thiazol-2-yl)(5,6-dichloro-1H-indol-3-yl)methanone] | 0.8 | 8.5 | 15.3 | 0.9 μL/min/10^6 ells | 4.8 | 13.5 | low clearance | low clearance | – | – | – | –
CCC(=O)c1csc(C(=O)c2c[nH]c3c(F)cccc23)n1 [ARI-140, 1-(2-(7-fluoro-1H-indole-3-carbonyl)thiazol-4-yl)propan-1-one] | 3.5 | 30 | 3.33 | 1.5 μL/min/10^6 ells | 8.3 | 7.5 | – | – | – | – | – | –
